Experimental data reported in patent US10562909B2, “Fused quadracyclic compounds, compositions and uses thereof” (Tabomedex Biosciences, LLC, priority 2016, dated 2020).
Values belong to the compound of their own block, whether it stands above or below them.

Molecular target: MAPKAPK2 (Homo sapiens, UniProt P49137)
Experiment: MK2 Enzymatic Assay
Assay type: biochemical
Settings: 0.5 nM MAPKAPK2, 3 μM ATP, 2 μM Ser/Thr4 peptide, 23° C., values given as concentration bins
Method in brief: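 Percent phosphorylation was derived from coumarin and fluorescein emissions relative to 0% and 100% phospho-peptide controls, read after a 120 min development step. Reactions used 2× stocks of 1 nM kinase, 4 μM peptide and 6 μM ATP; enzyme and peptide sat 20 min before a 120 min ATP reaction.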

MAPKAPK2, sequence (P49137 whole entry, species assumed): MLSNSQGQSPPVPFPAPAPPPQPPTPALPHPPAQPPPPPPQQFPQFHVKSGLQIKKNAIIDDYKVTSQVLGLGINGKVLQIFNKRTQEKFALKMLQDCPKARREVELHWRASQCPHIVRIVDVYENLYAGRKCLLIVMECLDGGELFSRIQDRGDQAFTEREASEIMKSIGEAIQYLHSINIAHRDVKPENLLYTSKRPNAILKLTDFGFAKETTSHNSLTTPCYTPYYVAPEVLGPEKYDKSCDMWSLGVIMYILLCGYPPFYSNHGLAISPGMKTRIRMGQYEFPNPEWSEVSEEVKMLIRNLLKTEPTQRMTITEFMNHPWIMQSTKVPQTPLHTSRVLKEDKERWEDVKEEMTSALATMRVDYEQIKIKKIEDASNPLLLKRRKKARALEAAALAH

SMILES: CC(C)[C@H](CO)NC[C@H]1CCN(c2ccc3c(c2)Cn2cc(-c4ccc(F)cc4)cc2-c2nccn2-3)C1 [Compound 358, (R)-2-((((R)-1-(12-(4-fluorophenyl)-9H-benzo[e]imidazo[2,1-c]pyrrolo[1,2-a][1,4]diazepin-7-yl)pyrrolidin-3-yl)methyl)amino)-3-methylbutan-1-ol]
IC50: < 50 nM

SMILES: CN(C)C[C@H]1CN(c2ccc3c(c2)Cn2cc(-c4ccc(C#N)cc4)cc2-c2nccn2-3)C[C@H]1O [Compound 128, 4-(7-((3S,4S)-3-((dimethylamino)methyl)-4-hydroxypyrrolidin-1-yl)-9H-benzo[e]imidazo[2,1-c]pyrrolo[1,2-a][1,4]diazepin-12-yl)benzonitrile]
IC50: 50 to 100 nM

SMILES: CN(C)C[C@@H]1CCN(c2ccc3c(c2)Cn2cc(-c4ccc(F)cc4)cc2-c2ncnn2-3)C1 [Compound 413, (S)-1-(1-(12-(4-fluorophenyl)-9H-benzo[e]pyrrolo[1,2-a][1,2,4]triazolo[5,1-c][1,4]diazepin-7-yl)pyrrolidin-3-yl)-N,N-dimethylmethanamine]
IC50: < 50 nM

SMILES: CN1CC2(CCN(c3ccc4c(c3)Cn3c(cc(-c5ccc(C#N)cc5)c3Cl)-c3nncn3-4)C2)C1 [Compound 168, 4-(11-chloro-7-(2-methyl-2,6-diazaspiro[3.4]octan-6-yl)-9H-benzo[e]pyrrolo[1,2-a][1,2,4]triazolo[3,4-c][1,4]diazepin-12-yl)benzonitrile]
IC50: 100 to 200 nM

SMILES: CNCC1CN(c2ccc3c(n2)Cn2cc(-c4ccc(C#N)cc4)cc2-c2nccn2-3)C1 [Compound 295, 4-(7-(3-((methylamino)methyl)azetidin-1-yl)-9H-imidazo[2,1-c]pyrido[3,2-e]pyrrolo[1,2-a] [1,4]diazepin-12-yl)benzonitrile]
IC50: < 50 nM

SMILES: C[C@@H](CO)NC[C@H]1CCN(c2ccc3c(n2)Cn2cc(-c4ccc(F)cc4)cc2-c2nccn2-3)C1 [Compound 437, (S)-2-((((R)-1-(12-(4-fluorophenyl)-9H-imidazo[2,1-c]pyrido[3,2-e]pyrrolo[1,2-a][1,4]diazepin-7-yl)pyrrolidin-3-yl)methyl)amino)propan-1-ol]
IC50: < 50 nM

SMILES: CN(C)C[C@H]1CN(c2ccc3c(c2)Cn2cc(-c4ccc(C#N)cc4)cc2-c2nncn2-3)C[C@@H]1O (racemic) [Compound 74, 4-(7-(trans-3-((dimethylamino)methyl)-4-hydroxypyrrolidin-1-yl)-9H-benzo[e]pyrrolo[1,2-a][1,2,4]triazolo[3,4-c][1,4]diazepin-12-yl)benzonitrile]
IC50: < 50 nM

SMILES: Cc1nnc2n1-c1ccc(N3CC[C@H](CN(C)C)C3)cc1Cn1cc(-c3ccc(C#N)cc3)cc1-2 [Compound 229, 4-(7-((R)-3-((dimethylamino)methyl)pyrrolidin-1-yl)-3-methyl-9H-benzo[e]pyrrolo[1,2-a] [1,2,4]triazolo[3,4-c][1,4]diazepin-12-yl)benzonitrile]
IC50: 50 to 100 nM

SMILES: C[C@H](CO)NC[C@H]1CCN(c2ccc3c(c2)Cn2cc(-c4ccc(F)cc4)cc2-c2nccn2-3)C1 [Compound 355, (R)-2-((((R)-1-(12-(4-fluorophenyl)-9H-benzo[e]imidazo[2,1-c]pyrrolo[1,2-a][1,4]diazepin-7-yl)pyrrolidin-3-yl)methyl)amino)propan-1-ol]
IC50: < 50 nM

SMILES: OCCN1CC2(CCN(c3ccc4c(c3)Cn3cc(-c5ccc(F)cc5)cc3-c3nccn3-4)C2)C1 [Compound 369, 2-(6-(12-(4-fluorophenyl)-9H-benzo[e]imidazo[2,1-c]pyrrolo[1,2-a][1,4]diazepin-7-yl)-2,6-diazaspiro[3.4]octan-2-yl)ethanol]
IC50: < 50 nM

SMILES: CN(C)[C@@H]1CN(c2ccc3c(n2)Cn2cc(-c4ccc(F)cc4)cc2-c2nccn2-3)C[C@@H]1O [Compound 433, (3S,4R)-4-(dimethylamino)-1-(12-(4-fluorophenyl)-9H-imidazo[2,1-c]pyrido[3,2-e]pyrrolo[1,2-a][1,4]diazepin-7-yl)pyrrolidin-3-ol]
IC50: 50 to 100 nM

SMILES: N[C@H]1CCCN(c2ccc3c(c2)Cn2cc(-c4ccc(F)cc4)cc2-c2nnnn2-3)C1 [Compound 390, (S)-1-(12-(4-fluorophenyl)-9H-benzo[e]pyrrolo[1,2-a]tetrazolo[5,1-c][1,4]diazepin-7-yl) piperidin-3-amine]
IC50: 50 to 100 nM

SMILES: N#Cc1ccc(-c2cc3n(c2)Cc2cc(N4CC[C@@H](CN5CCC(O)CC5)C4)ccc2-n2ccnc2-3)cc1 [Compound 142, (S)-4-(7-(3-((4-hydroxypiperidin-1-yl)methyl)pyrrolidin-1-yl)-9H-benzo[e]imidazo[2,1-c]pyrrolo[1,2-a][1,4]diazepin-12-yl)benzonitrile]
IC50: < 50 nM

SMILES: CN(C)C[C@@H]1CCN(c2ccc3c(c2)Cn2cc(-c4ccc(C#N)cc4)cc2-c2ncnn2-3)C1 [Compound 254, (S)-4-(7-(3-((dimethylamino)methyl)pyrrolidin-1-yl)-9H-benzo[e]pyrrolo[1,2-a][1,2,4]triazolo[5,1-c][1,4]diazepin-12-yl)benzonitrile]
IC50: 50 to 100 nM

Next, values leading:

IC50: 100 to 200 nM
SMILES: CC(C)(NCC1CCN(c2ccc3c(c2)Cn2cc(-c4ccc(F)cc4)cc2-c2nccn2-3)C1)C(=O)O (stereo not drawn) [Compound 479, 2-(((1-(12-(4-fluorophenyl)-9H-benzo[e]imidazo[2,1-c]pyrrolo[1,2-a][1,4]diazepin-7-yl)pyrrolidin-3-yl)methyl)amino)-2-methylpropanoic acid]

IC50: 500 to 1000 nM
SMILES: Cc1cc(N2C[C@@H](CN(C)C)[C@H](O)C2)cc2c1-n1ccnc1-c1cc(-c3ccc(F)cc3)cn1C2 [Compound 512, (3S,4R)-4-((dimethylamino)methyl)-1-(12-(4-fluorophenyl)-5-methyl-9H-benzo[e]imidazo[2,1-c]pyrrolo[1,2-a][1,4]diazepin-7-yl)pyrrolidin-3-ol]

IC50: < 50 nM
SMILES: CN(C)C[C@H]1CN(c2ccc3c(c2)Cn2cc(-c4ccc(F)cc4)cc2-c2nccn2-3)C[C@H]1F [Compound 467, 1-((3S,4S)-4-fluoro-1-(12-(4-fluorophenyl)-9H-benzo[e]imidazo[2,1-c]pyrrolo[1,2-a][1,4]diazepin-7-yl)pyrrolidin-3-yl)-N,N-dimethylmethanamine]

IC50: < 50 nM
SMILES: CNC[C@H]1CN(c2ccc3c(c2)Cn2cc(-c4ccc(F)cc4)cc2-c2ncnn2-3)C[C@H]1F [Compound 497, 1-((3S,4S)-4-fluoro-1-(12-(4-fluorophenyl)-9H-benzo[e]pyrrolo[1,2-a][1,2,4]triazolo[5,1-c] [1,4]diazepin-7-yl)pyrrolidin-3-yl)-N-methylmethanamine]

IC50: < 50 nM
SMILES: CCNC[C@@H]1CCN(c2ccc3c(c2)Cn2cc(-c4ccc(F)cc4)cc2-c2nccn2-3)C1 [Compound 464, (S)—N-((1-(12-(4-fluorophenyl)-9H-benzo[e]imidazo[2,1-c]pyrrolo[1,2-a][1,4]diazepin-7-yl)pyrrolidin-3-yl)methyl)ethanamine]

IC50: < 50 nM
SMILES: c1ccc(-c2cc3n(c2)Cc2cc(N4CCC5(CNC5)C4)ccc2-n2ccnc2-3)cc1 [Compound 462, 12-phenyl-7-(2,6-diazaspiro[3.4]octan-6-yl)-9H-benzo[e]imidazo[2,1-c]pyrrolo[1,2-a][1,4]diazepine]

IC50: 100 to 200 nM
SMILES: Cc1cc(N2C[C@@H](CN(C)C)[C@H](O)C2)cc2c1-n1ncnc1-c1cc(-c3ccc(F)cc3)cn1C2 [Compound 513, (3S,4R)-4-((dimethylamino)methyl)-1-(12-(4-fluorophenyl)-5-methyl-9H-benzo[e]pyrrolo[1,2-a][1,2,4]triazolo[5,1-c][1,4]diazepin-7-yl)pyrrolidin-3-ol]
